Experimental data from ChEMBL document CHEMBL3832761, “MMV Pathogen Box Bioactivity Data” (2017).
≈ marks a conversion by molar mass, not a printed value.

Experiments:
Format in all cases: functional
[1] = system: Mycobacterium tuberculosis; test: AntiMycobacterium tuberculosis activity 1-week 7H9/DPPC/cholesterol/BSA/Tx MIC (uM); settings: 168 h
[2] = system: Mycobacterium tuberculosis; test: (§1) AntiMycobacterium tuberculosis activity day 10 in 7H9/2.5mM butyrate/pH6/0.1mM nitrite MIC90 (uM); settings: 240 h
[3] = system: Mycobacterium tuberculosis; test: AntiMycobacterium tuberculosis activity 2-week GAST/Fe MIC (uM); settings: 336 h
HepG2 = test: HepG2 CC50 (uM) Cytotoxicity; settings: Homo sapiens
[4] = system: Mycobacterium tuberculosis; test: AntiMycobacterium tuberculosis activity day 21 MIC99 in 7H9/2.5mM butyrate/pH6/0.1mM nitrite MIC99 (uM); settings: 504 h
[5] = system: Mycobacterium tuberculosis; test: as §1; settings: 240 h; remark: listed apart in the source
[6] = system: Mycobacterium tuberculosis; test: AntiMycobacterium tuberculosis activity 2-week Alamar Blue 7H9/ADC/Tw MIC (uM); settings: 336 h
[7] = system: Mycobacterium tuberculosis; test: AntiMycobacterium tuberculosis activity 1-week GAST/Fe MIC (uM); settings: 168 h
[8] = system: Mycobacterium tuberculosis; test: AntiMycobacterium tuberculosis activity 1-week 7H9/cholesterol/BSA/Tx MIC (uM); settings: 168 h
[9] = system: Mycobacterium tuberculosis; test: AntiMycobacterium tuberculosis activity Replicating form: Average MIC90 (uM)
[10] = system: Mycobacterium tuberculosis; test: AntiMycobacterium tuberculosis activity 1-week 7H9/glucose/BSA/Tx MIC (uM); settings: 168 h
[11] = system: Mycobacterium tuberculosis; test: AntiMycobacterium tuberculosis activity 2-week 7H9/DPPC/cholesterol/BSA/Tx MIC (uM); settings: 336 h
[12] = system: Mycobacterium tuberculosis; test: AntiMycobacterium tuberculosis activity 1-week 7H9/ADC/Tw MIC (uM); settings: 168 h
[13] = system: Mycobacterium tuberculosis; test: AntiMycobacterium tuberculosis activity 2-week 7H9/glucose/BSA/Tx MIC (uM); settings: 336 h
[14] = system: Mycobacterium tuberculosis; test: AntiMycobacterium tuberculosis activity 2-week 7H9/ADC/Tw MIC (uM); settings: 336 h
[15] = system: Mycobacterium tuberculosis; test: AntiMycobacterium tuberculosis activity day 21 in 7H9/2.5mM butyrate/pH6/0.1mM nitrite MIC90 (uM); settings: 504 h
[16] = system: Mycobacterium tuberculosis; test: AntiMycobacterium tuberculosis activity Non-Replicating form: Average MIC90 (uM)
[17] = system: Mycobacterium tuberculosis; test: AntiMycobacterium tuberculosis activity 2-week Alamar Blue 7H9/cholesterol/BSA/Tx MIC (uM); settings: 336 h

Compound: CC(=O)NCC1CN(c2ccc(-c3ccc(CNCc4cn[nH]n4)cc3)c(F)c2)C(=O)O1 (configuration not stated)
- MIC [1]: 0.1 µM (≈ 0.0438 µg/mL)
- MIC90 [2]: 0.19 µM (≈ 0.0833 µg/mL)
- MIC [3]: 0.15 µM (≈ 0.0658 µg/mL)
- CC50 (HepG2): > 100 µM
- MIC [4]: 1.5 µM (≈ 0.658 µg/mL)
- MIC90 [5]: 1.5 µM (≈ 0.658 µg/mL)
- MIC [6]: 0.39 µM (≈ 0.171 µg/mL)
- MIC [7]: 0.1 µM (≈ 0.0438 µg/mL)
- MIC [8]: 0.3 µM (≈ 0.132 µg/mL)
- MIC90 [9]: 0.51 µM (≈ 0.224 µg/mL)
- MIC [10]: 0.2 µM (≈ 0.0877 µg/mL)
- MIC [11]: 0.3 µM (≈ 0.132 µg/mL)
- MIC [12]: 0.3 µM (≈ 0.132 µg/mL)
- MIC [13]: 0.3 µM (≈ 0.132 µg/mL)
- MIC [14]: 0.39 µM (≈ 0.171 µg/mL)
- MIC90 [15]: 0.39 µM (≈ 0.171 µg/mL)
- MIC90 [16]: 0.31 µM (≈ 0.136 µg/mL)
- MIC [17]: 0.39 µM (≈ 0.171 µg/mL)

Compound: Cc1ccc2oc(-c3cc(NC(=O)Cc4ccccc4)ccc3Cl)nc2c1
- MIC [1]: 12.5 µM (≈ 4.71 µg/mL)
- MIC90 [2]: > 50 µM
- MIC [3]: 9.4 µM (≈ 3.54 µg/mL)
- CC50 (HepG2): 83.6 µM
- MIC [4]: > 50 µM
- MIC90 [5]: > 50 µM
- MIC [6]: 25 µM (≈ 9.42 µg/mL)
- MIC [7]: 6.25 µM (≈ 2.36 µg/mL)
- MIC [8]: 25 µM (≈ 9.42 µg/mL)
- MIC90 [9]: 3.58 µM (≈ 1.35 µg/mL)
- MIC [10]: 25 µM (≈ 9.42 µg/mL)
- MIC [11]: 12.5 µM (≈ 4.71 µg/mL)
- MIC [12]: 25 µM (≈ 9.42 µg/mL)
- MIC [13]: 25 µM (≈ 9.42 µg/mL)
- MIC [14]: 25 µM (≈ 9.42 µg/mL)
- MIC90 [15]: > 50 µM
- MIC90 [16]: > 100 µM
- MIC [17]: 25 µM (≈ 9.42 µg/mL)

Compound: Cc1ccc2[nH]c(C3CCCNC3)c(-c3ccncc3)c2c1 (configuration not stated)
- MIC [1]: 9.4 µM (≈ 2.74 µg/mL)
- MIC90 [2]: 6.25 µM (≈ 1.82 µg/mL)
- MIC [3]: 2.3 µM (≈ 0.67 µg/mL)
- CC50 (HepG2): 12.7 µM
- MIC [4]: 25 µM (≈ 7.28 µg/mL)
- MIC90 [5]: 25 µM (≈ 7.28 µg/mL)
- MIC [6]: 12.5 µM (≈ 3.64 µg/mL)
- MIC [7]: 1.56 µM (≈ 0.455 µg/mL)
- MIC [8]: 6.25 µM (≈ 1.82 µg/mL)
- MIC90 [9]: 19.5 µM (≈ 5.68 µg/mL)
- MIC [10]: 25 µM (≈ 7.28 µg/mL)
- MIC [11]: 9.4 µM (≈ 2.74 µg/mL)
- MIC [12]: 37 µM (≈ 10.8 µg/mL)
- MIC [13]: 50 µM (≈ 14.6 µg/mL)
- MIC [14]: 50 µM (≈ 14.6 µg/mL)
- MIC90 [15]: 12.5 µM (≈ 3.64 µg/mL)
- MIC90 [16]: 50.5 µM (≈ 14.7 µg/mL)
- MIC [17]: 9.4 µM (≈ 2.74 µg/mL)

Compound: COc1ccc(Nc2ccccc2NC(=O)c2ccc(O)nc2)cc1
- MIC [1]: 0.6 µM (≈ 0.201 µg/mL)
- MIC90 [2]: 1.5 µM (≈ 0.503 µg/mL)
- MIC [3]: < 0.02 µM
- CC50 (HepG2): 42.5 µM
- MIC [4]: > 50 µM
- MIC90 [5]: > 50 µM
- MIC [6]: 12.5 µM (≈ 4.19 µg/mL)
- MIC [7]: < 0.02 µM
- MIC [8]: 0.3 µM (≈ 0.101 µg/mL)
- MIC90 [9]: 28.6 µM (≈ 9.59 µg/mL)
- MIC [10]: 37 µM (≈ 12.4 µg/mL)
- MIC [11]: 2.3 µM (≈ 0.771 µg/mL)
- MIC [12]: 37 µM (≈ 12.4 µg/mL)
- MIC [13]: 37 µM (≈ 12.4 µg/mL)
- MIC [14]: 37 µM (≈ 12.4 µg/mL)
- MIC90 [15]: 6.25 µM (≈ 2.1 µg/mL)
- MIC90 [16]: 17.8 µM (≈ 5.97 µg/mL)
- MIC [17]: 0.6 µM (≈ 0.201 µg/mL)

Compound: O=C(Nc1nnc(-c2ccc(Cl)cc2)o1)c1cccc(C(F)(F)F)c1
- MIC [1]: 4.7 µM (≈ 1.73 µg/mL)
- MIC90 [2]: 12.5 µM (≈ 4.6 µg/mL)
- MIC [3]: 0.07 µM (≈ 0.0257 µg/mL)
- CC50 (HepG2): 9 µM
- MIC [4]: 50 µM (≈ 18.4 µg/mL)
- MIC90 [5]: > 50 µM
- MIC [6]: 25 µM (≈ 9.19 µg/mL)
- MIC [7]: 0.05 µM (≈ 0.0184 µg/mL)
- MIC [8]: 19 µM (≈ 6.99 µg/mL)
- MIC90 [9]: 27.2 µM (≈ 10 µg/mL)
- MIC [10]: 3.13 µM (≈ 1.15 µg/mL)
- MIC [11]: 19 µM (≈ 6.99 µg/mL)
- MIC [12]: 25 µM (≈ 9.19 µg/mL)
- MIC [13]: 6.25 µM (≈ 2.3 µg/mL)
- MIC [14]: 25 µM (≈ 9.19 µg/mL)
- MIC90 [15]: 12.5 µM (≈ 4.6 µg/mL)
- MIC90 [16]: 2.71 µM (≈ 0.997 µg/mL)
- MIC [17]: 12.5 µM (≈ 4.6 µg/mL)

Compound: CC(C)(C(=O)Nc1ccc(F)cc1)n1cc(-c2ccccc2F)cn1
- MIC [1]: 2.3 µM (≈ 0.785 µg/mL)
- MIC90 [2]: 6.25 µM (≈ 2.13 µg/mL)
- MIC [3]: 2.3 µM (≈ 0.785 µg/mL)
- CC50 (HepG2): > 100 µM
- MIC [4]: 12.5 µM (≈ 4.27 µg/mL)
- MIC90 [5]: 12.5 µM (≈ 4.27 µg/mL)
- MIC [6]: 2.3 µM (≈ 0.785 µg/mL)
- MIC [7]: 2.3 µM (≈ 0.785 µg/mL)
- MIC [8]: 0.6 µM (≈ 0.205 µg/mL)
- MIC90 [9]: 4.51 µM (≈ 1.54 µg/mL)
- MIC [10]: 3.13 µM (≈ 1.07 µg/mL)
- MIC [11]: 1.56 µM (≈ 0.533 µg/mL)
- MIC [12]: 1.56 µM (≈ 0.533 µg/mL)
- MIC [13]: 3.13 µM (≈ 1.07 µg/mL)
- MIC [14]: 1.56 µM (≈ 0.533 µg/mL)
- MIC90 [15]: 6.25 µM (≈ 2.13 µg/mL)
- MIC90 [16]: 3.6 µM (≈ 1.23 µg/mL)
- MIC [17]: 1.56 µM (≈ 0.533 µg/mL)

Compound: O=C1O[C@@H](COc2ccon2)CN1c1cc(F)c(C2=CCN(Cc3ccccc3)CC2)c(F)c1
- MIC [1]: 1.56 µM (≈ 0.729 µg/mL)
- MIC90 [2]: 6.25 µM (≈ 2.92 µg/mL)
- MIC [3]: 1.56 µM (≈ 0.729 µg/mL)
- CC50 (HepG2): 30.4 µM
- MIC [4]: 25 µM (≈ 11.7 µg/mL)
- MIC90 [5]: 25 µM (≈ 11.7 µg/mL)
- MIC [6]: 0.39 µM (≈ 0.182 µg/mL)
- MIC [7]: 0.78 µM (≈ 0.365 µg/mL)
- MIC [8]: 1.2 µM (≈ 0.561 µg/mL)
- MIC90 [9]: 3.51 µM (≈ 1.64 µg/mL)
- MIC [10]: 0.78 µM (≈ 0.365 µg/mL)
- MIC [11]: 1.56 µM (≈ 0.729 µg/mL)
- MIC [12]: 0.39 µM (≈ 0.182 µg/mL)
- MIC [13]: 0.78 µM (≈ 0.365 µg/mL)
- MIC [14]: 0.6 µM (≈ 0.28 µg/mL)
- MIC90 [15]: 6.25 µM (≈ 2.92 µg/mL)
- MIC90 [16]: 2.88 µM (≈ 1.35 µg/mL)
- MIC [17]: 0.6 µM (≈ 0.28 µg/mL)

Compound: Cc1cc(O)nc(-n2nc(C)cc2C)n1
- MIC [1]: 50 µM (≈ 10.2 µg/mL)
- MIC90 [2]: 6.25 µM (≈ 1.28 µg/mL)
- MIC [3]: 4.7 µM (≈ 0.96 µg/mL)
- CC50 (HepG2): 60.7 µM
- MIC [4]: 12.5 µM (≈ 2.55 µg/mL)
- MIC90 [5]: 25 µM (≈ 5.11 µg/mL)
- MIC [6]: 50 µM (≈ 10.2 µg/mL)
- MIC [7]: 1.56 µM (≈ 0.319 µg/mL)
- MIC [8]: 25 µM (≈ 5.11 µg/mL)
- MIC90 [9]: > 100 µM
- MIC [10]: 25 µM (≈ 5.11 µg/mL)
- MIC [11]: > 50 µM
- MIC [12]: 37 µM (≈ 7.56 µg/mL)
- MIC [13]: > 50 µM
- MIC [14]: 50 µM (≈ 10.2 µg/mL)
- MIC90 [15]: 12.5 µM (≈ 2.55 µg/mL)
- MIC90 [16]: > 43.3 µM
- MIC [17]: 25 µM (≈ 5.11 µg/mL)

Compound: CC(Oc1ccccc1)C(=O)Nc1nc(-c2ccccn2)cs1 (configuration not stated)
- MIC [1]: 25 µM (≈ 8.13 µg/mL)
- MIC90 [2]: 12.5 µM (≈ 4.07 µg/mL)
- MIC [3]: 2.3 µM (≈ 0.748 µg/mL)
- CC50 (HepG2): 29.3 µM
- MIC [4]: 6.25 µM (≈ 2.03 µg/mL)
- MIC90 [5]: 6.25 µM (≈ 2.03 µg/mL)
- MIC [6]: 12.5 µM (≈ 4.07 µg/mL)
- MIC [7]: 1.56 µM (≈ 0.508 µg/mL)
- MIC [8]: 9.4 µM (≈ 3.06 µg/mL)
- MIC90 [9]: 91.3 µM (≈ 29.7 µg/mL)
- MIC [10]: 12.5 µM (≈ 4.07 µg/mL)
- MIC [11]: > 50 µM
- MIC [12]: 12.5 µM (≈ 4.07 µg/mL)
- MIC [13]: 50 µM (≈ 16.3 µg/mL)
- MIC [14]: 12.5 µM (≈ 4.07 µg/mL)
- MIC90 [15]: 12.5 µM (≈ 4.07 µg/mL)
- MIC90 [16]: 41.7 µM (≈ 13.6 µg/mL)
- MIC [17]: 19 µM (≈ 6.18 µg/mL)
